{"source": "patent US20220193201A1", "about": "“GLP-1R AGONIST REDUCES RETINAL INFLAMMATION AND NEURON DEATH SECONDARY TO OCULAR HYPERTENSION” (THE TRUSTEES OF THE UNIVERSITY OF PENNSYLVANIA, priority 2020, published 2022)", "key": {"[1]": {"conditions": "cited from earlier work"}, "NFκB [2]": {"system": "NFκB", "test": "phospho-NFκB/total NFκB ELISA and NFκBIA (IκBα) qPCR in sorted CD11b+ retinal cells of microbead-injected mice", "format": "in vivo, mouse", "conditions": "42nd day post-injection; CD11b+ CD11c− and CD11b+ CD11c+ cells; NLY01 5 mg/kg s.c. twice weekly vs NSS", "procedure": "FIGS. 11A-11D show NLY01 modulates NFκB signaling in CD11b+ CD11c− and CD11b+ CD11c+ cells. Related to FIGS. 4A-4H and 5A-5H. C57BL6/J (WT) mice were injected either with microbeads (“Bead”, left eye), to increase intraocular pressure (IOP), or with BSS (right eye). Following intraocular injections, mice were randomized to twice weekly subcutaneous NLY01 (5 mg kg^−1 per injection) or normal saline solution (NSS). 42 days post-injection mice were euthanized, neurosensory retina (“NSR”) was harvested and sorted as described in FIG. 9A to isolate CD11b+CD11c− and CD11b+ CD11c+ cells. […] All data presented as mean±SEM. Ordinary one-way ANOVA, *p<0.05, **p<0.01, ***p<0.001, ****p<0.0001.\nACSA2+, CD11b+ CD11c−, and CD11b+ CD11c+ cells were isolated from adult murine retinas using the Miltenyi Adult Brain Dissociation Kit (Miltenyi Biotec, 130-107-677) and MACS magnetic cell separation system. […]\nELISA kits were used to measure protein levels of IL-1α (BMS627, Thermofisher Scientific), TNF-α (BMS607-3, Thermofisher Scientific), C1q (LS-F55223-1, LifeSpan BioSciences), C3 (ab157711, Abcam), and phospho-NFκB/total NFκB (Thermofisher Scientific, 50-246-259) according to the manufacturer's protocol. […] Protein levels were determined by comparing the absorbance produced by the samples with that of a calibration curve. […]"}, "NFκB [3]": {"system": "NFκB", "conditions": "GLP-1R-dependent manner; cited from earlier work"}, "[4]": {"conditions": "cited from earlier work", "remark": "listed apart in the source"}, "[5]": {"system": "retinal ganglion cells (RGCs)", "test": "Retinal ganglion cell counting on retinal flatmounts (Brn3a, Rbpms), microbead eIOP model, subcutaneous NLY01", "format": "in vivo, mouse", "conditions": "42 days; NLY01 5 mg/kg twice weekly vs NSS; bead eye normalized to BSS eye"}, "[6]": {"test": "Intraocular pressure (IOP) measurement in microbead-induced ocular hypertension mouse glaucoma model", "conditions": "NLY01 5 mg/kg s.c. twice weekly vs normal saline; IOP across the study"}, "CD11b+ CD11c− cells": {"system": "CD11b+ CD11c− cells", "test": "qPCR of Il1a, Tnf, C1qa mRNA in CD11b+ CD11c- cells sorted from neurosensory retina of microbead-injected mice", "format": "in vivo, mouse", "conditions": "NLY01 5 mg/kg s.c. twice weekly vs NSS"}, "[7]": {"system": "ACSA2+ cells (astrocyte and Müller cell enriched)", "test": "qPCR of pan reactive, A1-specific transcripts and C3 in ACSA2+ retinal cells of microbead-injected mice", "format": "in vivo, mouse", "conditions": "NLY01 5 mg/kg s.c. twice weekly vs NSS"}, "CD11b+ CD11c+ cells": {"system": "CD11b+ CD11c+ cells", "test": "qPCR of Il1a, Tnf, C1qa mRNA in CD11b+ CD11c+ cells sorted from neurosensory retina of microbead-injected mice", "format": "in vivo, mouse", "conditions": "NLY01 5 mg/kg s.c. twice weekly vs NSS"}, "[8]": {"conditions": "mouse model of Parkinson's disease"}}, "data": [{"substance": "NLY01: pegylated exendin-4 (exenatide); long-acting GLP-1R agonist, obtained from Neuraly", "values": [{"measurement": "microglia density", "setting": "[1]; [8]", "result": "reduces"}, {"measurement": "relative IBA1 levels", "setting": "[1]; [8]", "result": "reduces"}, {"measurement": "A1 astrocyte transformation", "setting": "[1]; mouse models of PD", "result": "blocking"}, {"measurement": "dopaminergic cell death", "setting": "[1]; mouse models of PD", "result": "reducing"}, {"measurement": "microglial production of C1q, TNF-α, and IL-1α", "setting": "[1]; mouse models of PD", "result": "reduce"}, {"measurement": "motor symptoms", "setting": "[1]; mouse models of PD", "result": "improving"}, {"measurement": "mRNA levels of IκBα", "setting": "NFκB [2]", "result": "increased"}, {"measurement": "phosphorylated NFκB protein levels", "setting": "NFκB [2]", "result": "decreased"}, {"measurement": "nuclear translocation and phosphorylation of NFκB in brain microglia", "setting": "NFκB [3]", "result": "reduce"}, {"measurement": "blood-brain barrier penetration", "setting": "[4]; in vivo", "result": "favorable"}, {"measurement": "half-life", "setting": "[4]; in vivo", "result": "extended"}, {"measurement": "NLY01 concentrations in the brain, Parkinson's disease mouse models vs WT animals", "setting": "[4]; mouse models of Parkinson's disease", "result": "higher"}, {"measurement": "RGC death secondary to eIOP, Brn3a+ cell counting", "setting": "[5]", "result": "reduced"}, {"measurement": "RGC death secondary to eIOP, RBPMS+ cell counting", "setting": "[5]", "result": "reduced"}, {"measurement": "effect on intraocular pressure in microbead- or BSS-injected eyes", "setting": "[6]", "result": "no effect"}, {"measurement": "CD11b+ CD11c− basal expression of C1q", "setting": "CD11b+ CD11c− cells; 14th day post-injection", "result": "without altering"}, {"measurement": "CD11b+ CD11c− basal expression of IL-1a", "setting": "CD11b+ CD11c− cells; 14th day post-injection", "result": "without altering"}, {"measurement": "CD11b+ CD11c− upregulation of TNF-α", "setting": "CD11b+ CD11c− cells; 14th day post-injection", "result": "reduced"}, {"measurement": "CD11b+ CD11c− expression of C1q", "setting": "CD11b+ CD11c− cells; 42nd day post-injection", "result": "reduced"}, {"measurement": "CD11b+ CD11c− expression of IL-1α", "setting": "CD11b+ CD11c− cells; 42nd day post-injection", "result": "reduced"}, {"measurement": "CD11b+ CD11c− expression of TNF-α", "setting": "CD11b+ CD11c− cells; 42nd day post-injection", "result": "reduced"}, {"measurement": "expression of A1-specific transcripts in ACSA2+ fraction", "setting": "[7]; 14th day post-injection", "result": "reduced"}, {"measurement": "expression of C3 in ACSA2+ fraction", "setting": "[7]; 14th day post-injection", "result": "reduced"}, {"measurement": "expression of pan reactive transcripts in ACSA2+ fraction", "setting": "[7]; 14th day post-injection", "result": "reduced"}, {"measurement": "expression of A1-specific transcripts in ACSA2+ fraction", "setting": "[7]; 42nd day post-injection", "result": "reduced"}, {"measurement": "expression of C3 in ACSA2+ fraction", "setting": "[7]; 42nd day post-injection", "result": "reduced"}, {"measurement": "expression of pan reactive transcripts in ACSA2+ fraction", "setting": "[7]; 42nd day post-injection", "result": "reduced"}, {"measurement": "CD11b+ CD11c+ expression of C1q", "setting": "CD11b+ CD11c+ cells; 14th day post-injection", "result": "reduced"}, {"measurement": "CD11b+ CD11c+ expression of IL-1α", "setting": "CD11b+ CD11c+ cells; 14th day post-injection", "result": "reduced"}, {"measurement": "CD11b+ CD11c+ expression of TNF-α", "setting": "CD11b+ CD11c+ cells; 14th day post-injection", "result": "reduced"}, {"measurement": "second cell population (CD11b+ CD11c−) expression of C1q", "setting": "CD11b+ CD11c+ cells; 42nd day post-injection", "result": "reduced"}, {"measurement": "second cell population (CD11b+ CD11c−) expression of IL-1α", "setting": "CD11b+ CD11c+ cells; 42nd day post-injection", "result": "reduced"}, {"measurement": "second cell population (CD11b+ CD11c−) expression of TNF-α", "setting": "CD11b+ CD11c+ cells; 42nd day post-injection", "result": "reduced"}]}]}
